Measured values taken from patent US20260294846A1, “COMPOSITIONS AND METHODS FOR TREATING VULVAR AND VAGINAL ATROPHY (VVA)” (Daré Bioscience, Inc., priority 2023, published 2026).
“Also recorded” adds a separate entry of the source.

Experiments:
[1] = more potent than tamoxifen; cited from earlier work
[2] = Systemic plasma pharmacokinetics of tamoxifen and metabolites after intravaginal DARE-VVA1; design: species or system human (women); settings: human, in vivo, 20 mg
Description: In each treatment group, participants will have serial blood sampling for PK analysis, with venous samples drawn from an indwelling line. Dense sampling will be performed following the Day 1 and Day 56 administrations of a tamoxifen vaginal insert; trough samples will be collected prior to dosing on Days 4, 7, 10, 18, 28, and 42, and a final sample will be collected at follow-up on Day 63. Samples will be analyzed using validated methods to determine plasma concentrations of tamoxifen and 3 metabolites: 4-hydroxytamoxifen, N-desmethyl-tamoxifen, and N-desmethyl-4-hydroxytamoxifen (endoxifen). […]
Samples will be analyzed using validated methods to determine plasma concentrations of tamoxifen and 3 metabolites: 4-hydroxytamoxifen, N-desmethyltamoxifen, and N-desmethyl-4-hydroxytamoxifen (endoxifen).
The PK characterization of tamoxifen concentrations for each dose to be profiled will use noncompartmental analysis (NCA). […] Standard PK parameters assessed will include measures of the extent of absorption using estimates of the area under the plasma concentration-time curve (AUC), the maximum observed drug concentration (Cmax), and the time to reach maximum drug concentration (Tmax). […]

[3] = system: female New Zealand White rabbits (vagina, uterus, ovary); test: Study 3015-012: 12-week intravaginal toxicity of tamoxifen in rabbits; type: in vivo, rabbit (New Zealand White)
Description: (§1) Tamoxifen is a selective estrogen receptor modulator (SERM) which has species and tissue specific estrogen agonist and antagonist properties. Given orally in women, tamoxifen has estrogen antagonist activity in breast tissue and estrogen agonist effects in the endometrium and vagina. When administered vaginally in women, there is reduced systemic exposure leading to reduced systemic side effects. The objective of this pre-clinical study was to test the safety, pharmacokinetics (PK) and toxicity of vaginal tamoxifen over a 3 and 9 month treatment period in female New Zealand White rabbits.
(§2) All animal studies were conducted under IACUC approvals. In study 3015-012, at Charles River Labs (Mattawan, MI, USA), 45 female rabbits were randomly assigned to either sham (saline), placebo, or 5, 10 or 20 mg/kg/dose of vaginal tamoxifen. Investigational product (IP) was administered intravaginally once daily for 14 days, then twice weekly for up to 10 weeks with necropsy at 12-weeks. In study 858-0032-TX, conducted at WuXi AppTec (Suzhou, Jiangsu, China), 40 female rabbits were randomly assigned to sham (saline), placebo, or 10 or 30 mg/kg/dose of vaginal tamoxifen. IP was administered daily for 14 days and then twice weekly. An interim necropsy was performed at 26-weeks and then at 39-weeks.

[4] = system: female New Zealand White rabbits (vagina, uterus, ovary); test: Study 858-0032-TX: 26/39-week intravaginal toxicity of tamoxifen in rabbits; type: in vivo, rabbit (New Zealand White)
Description: as §1, §2

[5] = cited from earlier work
endometrium = settings: cited from earlier work
vagina = test: Vaginal pH; type: in vivo, human (women)
Description: Estrogenic effect measurements will include vaginal cytology (maturation index; percentage of basal and superficial cells) and vaginal pH at screening and baseline, every 2 weeks during treatment, and 1 week after treatment.
Vaginal swabs for determination of pH will be collected in accordance with the schedule of events (Table 4). The pH of vaginal secretions will be measured using pH paper.
Local estrogenic effect measurements included obtaining vaginal epithelial cells from the lateral vaginal sidewall and determining the VMI. The VMI is determined by categorizing the ratio (proportion in 100 cells) of the three types of vaginal epithelial cell types (parabasal, intermediate and superficial). A total VMI score was calculated as: % superficial cells+(0.5 x% intermediate cells)+(0 x % parabasal cells). The VMI and vaginal pH were measured at screening and baseline, and subsequently every 2 weeks during treatment and 1 week after treatment.

[6] = 20 mg/kg/day, 12 weeks, cranial and mid vagina
[7] = 20 mg/kg/day, 12 weeks, intravaginal
[8] = postmenopausal women, daily oral tamoxifen at least 4 years

Compound: 4-hydroxytamoxifen [4-OHT]
- Potency relative to tamoxifen [1]: approximately 100 ×

Compound: CC/C(=C(\c1ccccc1)c1ccc(OCCNC)cc1)c1ccccc1 [NDT, N-desmethyltamoxifen]
- Systemic potency relative to tamoxifen [1]: approximately 1.7 ×

Compound: CC/C(=C(\c1ccccc1)c1ccc(OCCN(C)C)cc1)c1ccccc1 [tamoxifen, 1-(p-dimethylamino-ethoxphenyl)-2-ethyl-1,2-diphenylethylene]
- Cmax at 240 h ([2]; Day 10, read-out: Single maximum plasma tamoxifen concentration): 12 ng/mL
- concentration at 240 h ([2]; Day 10 trough, read-out: Plasma tamoxifen, median): 8.29 ng/mL
- Adverse effects ([3]; 20 mg dose, 12 weeks): no observed adverse effects
- Vagina microscopy, atrophy [3, 6]: minimal to mild diffuse atrophy; also recorded: diffuse vaginal atrophy
- Vagina microscopy, inflammatory cell infiltration [3, 6]: increased incidence and/or severity of minimal to mild mixed inflammatory cell infiltration; also recorded: increased incidence of vaginal mixed inflammatory cell infiltrates
- Ovary microscopy [3, 7]: atrophy of interstitial glands; also recorded: increased incidence of ovarian interstitial gland atrophy with decreased weights
- Paired ovary weights [3, 7]: decreases in the mean weights (absolute and relative to terminal body weight)
- Uterus/cervix weights [3, 7]: decreases in the mean weights (absolute and relative to terminal body weight); also recorded: decreased uterine weights
- Vaginal epithelial degeneration, erosion, ulceration ([3]; 12-week necropsy): no evidence of epithelial degeneration, erosion, or ulceration
- Other parameters ([3]; 12 weeks): no observed tamoxifen-related adverse effects on any of the other parameters
- Adverse effects ([4]; 30 mg dose, 39 weeks): no observed adverse effects
- Females affected by uterine atrophy ([4]; 30 mg/day, 26 weeks): Four of five
- Ovary microscopy ([4]; 30 mg/kg/day, 26 weeks): moderate to marked atrophy of the interstitial cells in the ovary
- Uterine and ovarian weights ([4]; 30 mg/kg/day, 26 weeks): Product-related uterine and ovarian weight decreases
- Uterus microscopy ([4]; 30 mg/kg/day, 26 weeks): mild to moderate uterine atrophy
- Macroscopic changes ([4]; 26 weeks, any treatment group): no IP related macroscopic changes
- Systemic toxicity clinical findings ([4]; two studies, up to 39 weeks): no observed clinical findings which would be suspicious for systemic toxicity
- Uterine or endometrial hyperplasia ([4]; two studies, up to 39 weeks): no evidence of uterine or endometrial hyperplasia
- Local genital tract findings ([4]; vagina, uterus, ovary, up to 39 weeks): mostly organ atrophy
- Steady-state plasma concentration of NDT, range ([5]; 3 months oral daily 20 mg tamoxifen): 152 to 706 ng/mL
- Mean steady-state concentration of tamoxifen ([5]; oral 20 mg dose): 122 ng/mL
- Steady-state concentration of tamoxifen, range ([5]; oral 20 mg dose): 71-183
- Peak plasma concentration of NDT, range ([5]; oral tamoxifen): 10 to 20 ng/mL
- Maximum plasma concentration of tamoxifen, range ([5]; single oral dose 20 mg): 35 to 45 ng/mL
- Mean maximum plasma concentration of tamoxifen ([5]; single oral dose 20 mg): 40 ng/mL
- Endometrial risk relative to general postmenopausal population (endometrium; [8]): about two to three times that of the general postmenopausal population
- Risk of complex hyperplasia (endometrium; [8]): 3%
- Risk of endometrial carcinoma (endometrium; [8]): 2%
- Risk of simple hyperplasia (endometrium; [8]): approximately 12%
- Risk of endometrial hyperplasia (endometrium; premenopausal women, oral tamoxifen): no different than in the general premenopausal population
- Improvement in vaginal pH (vagina; 10 mg and 20 mg, 8-week treatment): most improvement in vaginal pH
- Change in vaginal pH, baseline to end of treatment (vagina; all active doses combined, Day 56): statistically significant decreases in vaginal pH
- Median end of treatment vaginal pH levels, range (vagina; end of treatment): 5.0-5.3

Compound: CC/C(=C(\c1ccc(O)cc1)c1ccc(OCCNC)cc1)c1ccccc1 [endoxifen, N-desmethyl-4-hydroxytamoxifen]
- Potency relative to tamoxifen [1]: approximately 100 ×
